Experimental findings from patent US20180201592A1, “2-AMINO-1,3,4-THIADIAZINE AND 2-AMINO-1,3,4-OXADIAZINE BASED ANTIFUNGAL AGENTS” (F2G Limited, priority 2015, published 2018) are described below.

Conditions in all cases: banded MIC grade
Experiment [1] deals with A. fumigatus 210. The experiment is described as follows: Minimum inhibitory concentration, YAG medium. It is filed as cell-based, Aspergillus fumigatus. In short, it runs like this:
(§1)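 Broth microdilution in YAG medium; inoculum 1-2×10^4 cfu/mL; compound 50-0.05 mg/L in doubling steps, from DMSO stock. 24 h, 35° C. Read OD 485 nm; MIC = lowest conc. inhibiting growth >70% vs no-drug control, in mg/L.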

The next experiment has as its system Aspergillus fumigatus. Kind of experiment: Minimum inhibitory concentration, YAG medium. It is filed as cell-based. Put shortly: as §1
The test system of another experiment is C. albicans. The experiment is described as follows: Minimum inhibitory concentration, RPMI medium. It is filed as cell-based. In short, it runs like this: (§2)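 Compound stock was made at 5 mg/mL in DMSO, diluted in sterile water and serially doubled in water, then tested in RPMI 1640 medium. Plates were incubated 24-48 hrs at 35° C, and growth was scored as optical density at 485 nm.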

The subject of the next experiment is C. glabrata. Kind of experiment: Minimum inhibitory concentration, RPMI medium. The experiment is classed as cell-based. In short, it runs like this:
as §2

Another experiment has as its system C. parapsilosis. Kind of experiment: Minimum inhibitory concentration, RPMI medium. It is filed as cell-based. In short, it runs like this:
as §2

The test system of the next experiment is A. niger. Kind of experiment: Minimum inhibitory concentration, RPMI medium. It is filed as cell-based. Put shortly:
as §2

The test system of a further experiment is C. krusei. The experiment is described as follows: Minimum inhibitory concentration, RPMI medium. It is filed as cell-based. In short, it runs like this:
as §2

The next experiment concerns A. terreus. The experiment is described as follows: Minimum inhibitory concentration, RPMI medium. It is filed as cell-based. In short, it runs like this: as §2
A further experiment has as its system A. flavus. The experiment is described as follows: Minimum inhibitory concentration, RPMI medium. The experiment is classed as cell-based. In short, it runs like this:
as §2

For another experiment, the system named is C. tropicalis. Kind of experiment: Minimum inhibitory concentration, RPMI medium. The experiment is classed as cell-based. In short, it runs like this:
as §2

Experiment [2] has as its system A. terreus 49. The experiment is described as follows: Minimum inhibitory concentration, RPMI medium. The experiment is classed as cell-based. In short, it runs like this: as §2
The test system of another experiment is A. fumigatus. Kind of experiment: Minimum inhibitory concentration, RPMI medium. It is filed as cell-based. Put shortly: (§3)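 Compound doubling dilutions were prepared from 5 mg/mL DMSO stock; fungus was diluted in RPMI 1640 with 2% glucose and 0.135 M MOPS (pH 7.0), giving inocula of 1-2×10^4 cfu/mL and drug range 50-0.05 mg/L. Plates ran 24-48 hrs at 35° C; MIC is the lowest concentration giving >80% growth inhibition by OD485 versus drug-free control.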

The test system of experiment [3] is A. fumigatus 210. Kind of experiment: Minimum inhibitory concentration, RPMI medium. The experiment is classed as cell-based. In short, it runs like this: as §3
The next experiment concerns Aspergillus flavus. Kind of experiment: Minimum inhibitory concentration, YAG medium. The experiment is classed as cell-based. Put shortly:
(§4)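 Compound from a 5 mg/mL DMSO stock was further diluted in sterile water, then serially doubled in water and plated with Aspergillus spp. spores. After 24 hrs at 35° C, growth was monitored by optical density at 485 nm; MICs are given in mg/L.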

A further experiment concerns Aspergillus terreus. Kind of experiment: Minimum inhibitory concentration, YAG medium. It is filed as cell-based. In short, it runs like this:
as §4

Another experiment deals with Aspergillus niger. The experiment is described as follows: Minimum inhibitory concentration, YAG medium. It is filed as cell-based. Put shortly:
as §4

The test system of experiment [4] is A. terreus 49. Kind of experiment: Minimum inhibitory concentration, YAG medium. The experiment is classed as cell-based, Aspergillus terreus. Put shortly: as §4

With `NC1=NN=C(CCCCOCc2ccc(Cl)cc2F)CS1`, the “MIC grade, A. FUMIGATUS 210, YAG media” value in the experiment with A. fumigatus 210 [1] is on record as 4 (4: <0.2 mg/L). The “MIC grade, A. FUMIGATUS, YAG media” value in the experiment with Aspergillus fumigatus is 4 (4: <0.2 mg/L). In the experiment with C. albicans, the “MIC grade, C. ALBICANS, RPMI media” value was 4 (4: <1 mg/L). Further, the “MIC grade, C. GLABRATA, RPMI media” value in the experiment on C. glabrata was 3 (3: 1-5 mg/L). Further, in the experiment with C. parapsilosis, the “MIC grade, C. PARAPSILOSIS, RPMI media” value was 4 (4: <1 mg/L). Also, in the experiment with A. niger, the “MIC grade, A. NIGER, RPMI media” value is 3 (3: 1-5 mg/L). For the same compound, in the experiment on C. krusei, the “MIC grade, C. KRUSEI, RPMI media” value was 4 (4: <1 mg/L). The “MIC grade, A. TERREUS, RPMI media” value with A. terreus is reported as 3 (3: 1-5 mg/L). The “MIC grade, A. FLAVUS, RPMI media” value against A. flavus is 4 (4: <1 mg/L). The “MIC grade, C. TROPICALIS, RPMI media” value with C. tropicalis is on record as 4 (4: <1 mg/L). Moreover, the “MIC grade, A. TERREUS 49, RPMI media” value in the experiment with A. terreus 49 [2] was 3 (3: 1-5 mg/L). Also, the “MIC grade, A. FUMIGATUS, RPMI media” value against A. fumigatus is reported as 2 (2: 5-20 mg/L). For the same compound, the “MIC grade, A. FUMIGATUS 210, RPMI media” value in the experiment on A. fumigatus 210 [3] is 2 (2: 5-20 mg/L). Also, the “MIC grade, A. FLAVUS, YAG media” value against Aspergillus flavus is 4 (4: <0.2 mg/L). In the experiment on Aspergillus terreus, the “MIC grade, A. TERREUS, YAG media” value is given as 4 (4: <0.2 mg/L). Further, the “MIC grade, A. NIGER, YAG media” value in the experiment with Aspergillus niger was 3 (3: 0.2-1 mg/L). The “MIC grade, A. TERREUS 49, YAG media” value with A. terreus 49 [4] is 4 (4: <0.2 mg/L).

As to `NC1=NN=C(CCCCOCCCc2ccc(F)cc2F)CS1`, the “MIC grade, A. FUMIGATUS 210, YAG media” value against A. fumigatus 210 [1] is given as 3 (3: 0.2-1 mg/L). Further, the “MIC grade, A. FUMIGATUS, YAG media” value against Aspergillus fumigatus was 3 (3: 0.2-1 mg/L). Also, the “MIC grade, C. ALBICANS, RPMI media” value against C. albicans is given as 4 (4: <1 mg/L). The “MIC grade, C. GLABRATA, RPMI media” value against C. glabrata is 2 (2: 5-20 mg/L). Further, the “MIC grade, C. PARAPSILOSIS, RPMI media” value with C. parapsilosis is 4 (4: <1 mg/L). The “MIC grade, A. NIGER, RPMI media” value against A. niger is recorded as 2 (2: 5-20 mg/L). For the same compound, the “MIC grade, C. KRUSEI, RPMI media” value against C. krusei is listed as 4 (4: <1 mg/L). In addition, in the experiment with A. terreus, the “MIC grade, A. TERREUS, RPMI media” value was 2 (2: 5-20 mg/L). For the same compound, the “MIC grade, A. FLAVUS, RPMI media” value against A. flavus is 3 (3: 1-5 mg/L). Further, in the experiment on C. tropicalis, the “MIC grade, C. TROPICALIS, RPMI media” value is given as 3 (3: 1-5 mg/L). For the same compound, the “MIC grade, A. TERREUS 49, RPMI media” value in the experiment on A. terreus 49 [2] is reported as 2 (2: 5-20 mg/L). In addition, in the experiment on A. fumigatus, the “MIC grade, A. FUMIGATUS, RPMI media” value is recorded as 2 (2: 5-20 mg/L). Moreover, the “MIC grade, A. FUMIGATUS 210, RPMI media” value with A. fumigatus 210 [3] was 1 (1: ≥20 mg/L). The “MIC grade, A. FLAVUS, YAG media” value in the experiment on Aspergillus flavus is listed as 4 (4: <0.2 mg/L). In addition, in the experiment with Aspergillus terreus, the “MIC grade, A. TERREUS, YAG media” value is 3 (3: 0.2-1 mg/L). In the experiment on Aspergillus niger, the “MIC grade, A. NIGER, YAG media” value is reported as 3 (3: 0.2-1 mg/L). The “MIC grade, A. TERREUS 49, YAG media” value in the experiment with A. terreus 49 [4] was 3 (3: 0.2-1 mg/L).

With `CCc1cccc(COCCCCC2=NN=C(N)SC2)c1`, the “MIC grade, A. FUMIGATUS 210, YAG media” value against A. fumigatus 210 [1] is 3 (3: 0.2-1 mg/L). Moreover, the “MIC grade, A. FUMIGATUS, YAG media” value against Aspergillus fumigatus is 4 (4: <0.2 mg/L). Also, the “MIC grade, C. ALBICANS, RPMI media” value against C. albicans was 4 (4: <1 mg/L). In the experiment on C. glabrata, the “MIC grade, C. GLABRATA, RPMI media” value is on record as 2 (2: 5-20 mg/L). Moreover, in the experiment with C. parapsilosis, the “MIC grade, C. PARAPSILOSIS, RPMI media” value is reported as 4 (4: <1 mg/L). The “MIC grade, A. NIGER, RPMI media” value with A. niger is 2 (2: 5-20 mg/L). Besides, in the experiment with C. krusei, the “MIC grade, C. KRUSEI, RPMI media” value is recorded as 4 (4: <1 mg/L). For the same compound, the “MIC grade, A. TERREUS, RPMI media” value against A. terreus is recorded as 2 (2: 5-20 mg/L). In the experiment on A. flavus, the “MIC grade, A. FLAVUS, RPMI media” value is listed as 3 (3: 1-5 mg/L). In addition, the “MIC grade, C. TROPICALIS, RPMI media” value in the experiment on C. tropicalis is 4 (4: <1 mg/L). Further, the “MIC grade, A. TERREUS 49, RPMI media” value in the experiment with A. terreus 49 [2] is on record as 2 (2: 5-20 mg/L). In the experiment with A. fumigatus, the “MIC grade, A. FUMIGATUS, RPMI media” value is 2 (2: 5-20 mg/L). For the same compound, the “MIC grade, A. FUMIGATUS 210, RPMI media” value against A. fumigatus 210 [3] is reported as 2 (2: 5-20 mg/L). For the same compound, the “MIC grade, A. FLAVUS, YAG media” value in the experiment with Aspergillus flavus is on record as 4 (4: <0.2 mg/L). Moreover, the “MIC grade, A. TERREUS, YAG media” value in the experiment with Aspergillus terreus is listed as 4 (4: <0.2 mg/L). In addition, in the experiment with Aspergillus niger, the “MIC grade, A. NIGER, YAG media” value is 4 (4: <0.2 mg/L). Moreover, in the experiment on A. terreus 49 [4], the “MIC grade, A. TERREUS 49, YAG media” value is reported as 4 (4: <0.2 mg/L).
